Experimental data published in patent publication US11427567B2, “Imidazolyl pyrimidinylamine compounds as CDK2 inhibitors” (Incyte Corporation, priority 2019, dated 2022).

These molecules were tested against CDK2/Cyclin E1 (Homo sapiens (Human), UniProt P24941) (assay: CDK2/Cyclin E1 HTRF enzyme activity assay (Example A)). Conditions: 1 mM ATP.
Assay type: biochemical
Method: Assays were conducted in white 384-well polystyrene plates in a final reaction volume of 8 μL. […] HTRF signals were read after 1 hour at room temperature on a PHERAstar FS plate reader (BMG Labtech). Data was analyzed with IDBS XLFit and GraphPad Prism 5.0 software using a three or four parameter dose response curve to determine IC50 for each compound.
Work on Cc1nc(-c2nc(NC3CCN(S(C)(=O)=O)CC3)ncc2C(F)(F)F)cn1-c1ccc(N2CC[C@H](N(C)C)C2)cc1F [Example 110, (S)-4-(1-(4-(3-(Dimethylamino)-pyrrolidin-1-yl)-2-fluorophenyl)-2-methyl-1H-imidazol-4-yl)-N-(1-(methyl-sulfonyl)piperidin-4-yl)-5-(trifluoro-methyl)pyrimidin-2-amine] yielded an IC50 of at most 50 nM.
Molecule Cc1nc(-c2nc(NC3CCN(S(C)(=O)=O)CC3)ncc2C(F)(F)F)cn1-c1ccc(N2CCNCC2)cc1F [Example 111, 4-(1-(2-Fluoro-4-(piperazin-1-yl)-phenyl)-2-methyl-1H-imidazol-4-yl)-N-(1-(methyl-sulfonyl)piperidin-4-yl)-5-(trifluoro-methyl)pyrimidin-2-amine] has an IC50 of at most 50 nM.
COCCNc1ccc(-n2cc(-c3nc(NC4CCN(S(C)(=O)=O)CC4)ncc3C(F)(F)F)nc2C)c(F)c1 [Example 112, 4-(1-(2-Fluoro-4-((2-methoxyethyl)-amino)phenyl)-2-methyl-1H-imidazol-4-yl)-N-(1-(methyl-sulfonyl)piperidin-4-yl)-5-(trifluoro-methyl)pyrimidin-2-amine] gave an IC50 of at most 50 nM.
Cc1nc(-c2nc(NC3CCN(S(C)(=O)=O)CC3)ncc2C(F)(F)F)cn1-c1ccc(N(C)CCO)cc1F [Example 113, 2-((3-Fluoro-4-(2-methyl-4-(2-((1-(methyl-sulfonyl)piperidin-4-yl)amino)-5-(trifluoromethyl)-pyrimidin-4-yl)-1H-imidazol-1-yl)phenyl)(methyl)-amino)ethan-1-ol] was tested, and the IC50 was at most 50 nM.
Molecule Cc1nc(-c2nc(NC3CCN(S(C)(=O)=O)CC3)ncc2C(F)(F)F)cn1-c1ccc(N2CCC(N3CCCC3)CC2)cc1F [Example 114, 4-(1-(2-Fluoro-4-(4-(pyrrolidin-1-yl)piperidin-1-yl)-phenyl)-2-methyl-1H-imidazol-4-yl)-N-(1-(methyl-sulfonyl)piperidin-4-yl)-5-(trifluoro-methyl)pyrimidin-2-amine] has an IC50 of at most 50 nM.
Cc1nc(-c2nc(NC3CCN(S(C)(=O)=O)CC3)ncc2C(F)(F)F)cn1-c1ccc(N2CCN[C@H](C)C2)cc1F [Example 115, (R)-4-(1-(2-Fluoro-4-(3-methyl-piperazin-1-yl)-phenyl)-2-methyl-1H-imidazol-4-yl)-N-(1-(methyl-sulfonyl)piperidin-4-yl)-5-(trifluoro-methyl)pyrimidin-2-amine] showed an IC50 of at most 50 nM.
Cc1nc(-c2nc(NC3CCN(S(C)(=O)=O)CC3)ncc2C(F)(F)F)cn1-c1ccc(N2CC[C@H](O)C2)cc1F [Example 116, (S)-1-(3-Fluoro-4-(2-methyl-4-(2-((1-(methylsulfonyl)-piperidin-4-yl)-amino)-5-(trifluoro-methyl)pyrimidin-4-yl)-1H-imidazol-1-yl)phenyl)pyrrolidin-3-ol] gave an IC50 of at most 50 nM.
In the case of Cc1nc(-c2nc(NC3CCN(S(C)(=O)=O)CC3)ncc2C(F)(F)F)cn1-c1ccc(N[C@@H]2CCCN(C)C2)cc1F [Example 117], the IC50 is reported as at most 50 nM.
In the case of Cc1nc(-c2nc(N[C@H]3CCN(S(C)(=O)=O)C[C@H]3F)ncc2C(F)(F)F)cn1-c1ccc(N2CCC(N(C)C)CC2)cc1F [Example 118, 4-(1-(4-(4-(Dimethylamino)piperidin-1-yl)-2-fluorophenyl)-2-methyl-1H-imidazol-4-yl)-N-((3R,4S)-3-fluoro-1-(methylsulfonyl)piperidin-4-yl)-5-(trifluoromethyl)pyrimidin-2-amine], the IC50 is reported as at most 50 nM.
In the case of Cn1nccc1-c1ccc(-n2cnc(-c3nc(NC4CCN(S(C)(=O)=O)CC4)ncc3C(F)(F)F)c2)c(Cl)c1 [Example 119, 4-(1-(2-Chloro-4-(1-methyl-1H-pyrazol-5-yl)phenyl)-1H-imidazol-4-yl)-N-(1-(methylsulfonyl)piperidin-4-yl)-5-(trifluoromethyl)pyrimidin-2-amine], the IC50 is reported as at most 50 nM.
In the case of Cc1nnn(C)c1-c1ccc(-n2cnc(-c3nc(NC4CCN(S(C)(=O)=O)CC4)ncc3C(F)(F)F)c2)c(Cl)c1 [Example 120, 4-(1-(2-Chloro-4-(1,4-dimethyl-1H-1,2,3-triazol-5-yl)phenyl)-1H-imidazol-4-yl)-N-(1-(methylsulfonyl)-piperidin-4-yl)-5-(trifluoromethyl)-pyrimidin-2-amine], the IC50 is reported as at most 50 nM.
Molecule Cn1ncnc1-c1ccc(-n2cnc(-c3nc(NC4CCN(S(C)(=O)=O)CC4)ncc3C(F)(F)F)c2)c(Cl)c1 [Example 121, 4-(1-(2-Chloro-4-(1-methyl-1H-1,2,4-triazol-5-yl)phenyl)-1H-imidazol-4-yl)-N-(1-(methylsulfonyl)-piperidin-4-yl)-5-(trifluoromethyl)-pyrimidin-2-amine] has an IC50 of at most 50 nM.
With Cn1nncc1-c1ccc(-n2cnc(-c3nc(NC4CCN(S(C)(=O)=O)CC4)ncc3C(F)(F)F)c2)c(Cl)c1 [Example 122, 4-(1-(2-Chloro-4-(1-methyl-1H-1,2,3-triazol-5-yl)phenyl)-1H-imidazol-4-yl)-N-(1-(methyl-sulfonyl)piperidin-4-yl)-5-(trifluoro-methyl)pyrimidin-2-amine] the IC50 was at most 50 nM.
Work on Cc1ncn(C)c1-c1ccc(-n2cnc(-c3nc(NC4CCN(S(C)(=O)=O)CC4)ncc3C(F)(F)F)c2)c(Cl)c1 [Example 123, 4-(1-(2-Chloro-4-(1,4-dimethyl-1H-imidazol-5-yl)phenyl)-1H-imidazol-4-yl)-N-(1-(methylsulfonyl)-piperidin-4-yl)-5-(trifluoromethyl)-pyrimidin-2-amine] yielded an IC50 of at most 50 nM.
Molecule Cn1cncc1-c1ccc(-n2cnc(-c3nc(NC4CCN(S(C)(=O)=O)CC4)ncc3C(F)(F)F)c2)c(Cl)c1 [Example 124, 4-(1-(2-Chloro-4-(1-methyl-1H-imidazol-5-yl)phenyl)-1H-imidazol-4-yl)-N-(1-(methylsulfonyl)-piperidin-4-yl)-5-(trifluoromethyl)-pyrimidin-2-amine] has an IC50 of at most 50 nM.
Molecule Cn1ncnc1-c1ccc(-n2cnc(-c3nc(NC4CCN(S(C)(=O)=O)CC4)ncc3C(F)(F)F)c2)c(C#N)c1 [Example 125, 5-(1-Methyl-1H-1,2,4-triazol-5-yl)-2-(4-(2-((1-(methylsulfonyl)piperidin-4-yl)amino)-5-(trifluoromethyl)pyrimidin-4-yl)-1H-imidazol-1-yl)benzonitrile] has an IC50 of at most 50 nM.
CS(=O)(=O)N1CCC(Nc2ncc(C(F)(F)F)c(-c3cn(-c4ccc(OC(F)F)cc4C#N)cn3)n2)CC1 [Example 126, 5-(Difluoromethoxy)-2-(4-(2-((1-(methylsulfonyl)piperidin-4-yl)amino)-5-(trifluoromethyl)pyrimidin-4-yl)-1H-imidazol-1-yl)benzonitrile] gave an IC50 of at most 50 nM.
In the case of Cc1nn(C)cc1-c1ccc(-n2cc(-c3nc(NC4CCN(S(C)(=O)=O)CC4)ncc3C(F)(F)F)nc2C)c(F)c1 [Example 127, 4-(1-(4-(1,3-Dimethyl-1H-pyrazol-4-yl)-2-fluorophenyl)-2-methyl-1H-imidazol-4-yl)-N-(1-(methylsulfonyl)piperidin-4-yl)-5-(trifluoromethyl)pyrimidin-2-amine], the IC50 is reported as at most 50 nM.
For Cc1nc(-c2nc(NC3CCN(S(C)(=O)=O)CC3)ncc2C(F)(F)F)cn1-c1ccc(-c2cnnn2C)cc1F [Example 128, 4-(1-(2-Fluoro-4-(1-methyl-1H-1,2,3-triazol-5-yl)phenyl)-2-methyl-1H-imidazol-4-yl)-N-(1-(methylsulfonyl)piperidin-4-yl)-5-(trifluoromethyl)pyrimidin-2-amine], the IC50 was at most 50 nM.
Cc1nc(-c2nc(NC3CCN(S(C)(=O)=O)CC3)ncc2C(F)(F)F)cn1-c1ccc(-c2ccnn2C)cc1F [Example 129, 4-(1-(2-Fluoro-4-(1-methyl-1H-pyrazol-5-yl)phenyl)-2-methyl-1H-imidazol-4-yl)-N-(1-(methylsulfonyl)-piperidin-4-yl)-5-(trifluoromethyl)-pyrimidin-2-amine] showed an IC50 of at most 50 nM.
With Cc1nc(C(N)=O)ccc1-n1cnc(-c2nc(NC3CCN(S(C)(=O)=O)CC3)ncc2C(F)(F)F)c1 [Example 130, 6-Methyl-5-(4-(2-((1-(methylsulfonyl)piperidin-4-yl)amino)-5-(trifluoromethyl)pyrimidin-4-yl)-1H-imidazol-1-yl)picolinamide] the IC50 was at most 50 nM.
Work on [2H]C([2H])([2H])NC(=O)c1ccc(-n2cnc(-c3nc(NC4CCN(S(C)(=O)=O)CC4)ncc3C(F)(F)F)c2)c(C)n1 [Example 131, 6-Methyl-N-(methyl-d)-5-(4-(2-((1-(methylsulfonyl)piperidin-4-yl)amino)-5-(trifluoromethyl)pyrimidin-4-yl)-1H-imidazol-1-yl)picolinamide] yielded an IC50 of at most 50 nM.
CNC(=O)c1ccc(-n2cnc(-c3nc(NC4CCN(S(C)(=O)=O)CC4)ncc3C(F)(F)F)c2)c(C)n1 [Example 132, N,6-Dimethyl-5-(4-(2-((1-(methyl-sulfonyl)piperidin-4-yl)amino)-5-(trifluoromethyl)-pyrimidin-4-yl)-1H-imidazol-1-yl)picolinamide] was tested, and the IC50 was at most 50 nM.
Molecule Cc1nc(C(=O)NC(C)C)ccc1-n1cnc(-c2nc(NC3CCN(S(C)(=O)=O)CC3)ncc2C(F)(F)F)c1 [Example 133, N-Isopropyl-6-methyl-5-(4-(2-((1-(methyl-sulfonyl)piperidin-4-yl)amino)-5-(trifluoromethyl)-pyrimidin-4-yl)-1H-imidazol-1-yl)picolinamide] has an IC50 of at most 50 nM.
CCNC(=O)c1ccc(-n2cnc(-c3nc(NC4CCN(S(C)(=O)=O)CC4)ncc3C(F)(F)F)c2)c(C)n1 [Example 134, N-Ethyl-6-methyl-5-(4-(2-((1-(methyl-sulfonyl)piperidin-4-yl)amino)-5-(trifluoromethyl)-pyrimidin-4-yl)-1H-imidazol-1-yl)picolinamide] was tested, and the IC50 was at most 50 nM.
With CN(C)C(=O)c1ccc(-n2cnc(-c3nc(NC4CCN(S(C)(=O)=O)CC4)ncc3C(F)(F)F)c2)c(Cl)c1 [Example 135, 3-Chloro-N,N-dimethyl-4-(4-(2-((1-(methylsulfonyl)piperidin-4-yl)amino)-5-(trifluoromethyl)pyrimidin-4-yl)-1H-imidazol-1-yl)benzamide] the IC50 was at most 50 nM.
